Among the data in patent publication US20110105541A1, “ALKYL SUBSTITUTED ARYLINDENOPYRIMIDINES AND THEIR USE AS HIGHLY SELECTIVE ADENOSINE A2a RECEPTOR ANTAGONISTS” (priority 2009, published 2011) are IC50 and A1/A2A values, retold here.

Experiment [1] addresses T1, human adenosine A2A receptor (Homo sapiens, UniProt P29274).
T1 construct: expressed in transfected cells; host or cells: CHO-K1
In words: Adenosine A2A receptor functional assay (A2AGAL2), cAMP inducible beta-galactosidase reporter, NECA challenge. The format is cell-based. Conditions: for pIC50: CHO-K1 cells overexpressing human A2A receptor, antagonist curve against 15 nM NECA; for A1/A2A: ratio of A1Gal2 to A2AGal2 values (selectivity for A2A over A1). Here is the method:
Adenosine A2 Receptor Functional Assay (A2AGAL2)
To initiate the functional assay, cryopreserved CHO—K1 cells overexpressing the human adenosine A2A receptor and containing a cAMP inducible beta-galactosidase reporter gene were thawed, centrifuged, DMSO containing media removed, and then seeded with fresh culture media into clear 384-well tissue culture treated plates (BD #353961) at a concentration of 10K cells/well. Prior to assay, these plates were cultured for two days at 37° C., 5% CO2, 90% Rh. On the day of the functional assay, culture media was removed and replaced with 45 μL assay medium (Hams/F-12 Modified (Mediatech # 10-080CV) supplemented w/0.1% BSA). Test compounds were diluted and 11 point curves created at a 1000× concentration in 100% DMSO. Immediately after addition of assay media to the cell plates, […] of the appropriate test compound antagonist or agonist control curves were added to cell plates using a Cartesian Hummingbird. Compound curves were allowed to incubate at room temperature on cell plates for approximately 15 minutes before addition of a 15 nM NECA (Sigma E2387) agonist challenge (5 μL volume). A control curve of NECA, a DMSO/Media control, and a single dose of Forskolin (Sigma F3917) were also included on each plate. After additions, cell plates were allowed to incubate at 37° C., 5% CO2, 90% Rh for 5.5-6 hours. After incubation, media were removed, and cell plates were washed 1×50 μL with DPBS w/o Ca & Mg (Mediatech 21-031-CV). Into dry wells, 20 μL of 1× Reporter Lysis Buffer (Promega E3971 (diluted in dH2O from 5× stock)) was added to each well and plates frozen at −20° C. overnight. For β-galactosidase enzyme colorimetric assay, plates were thawed out at room temperature and 20 μL 2× assay buffer (Promega) was added to each well. Color was allowed to develop at 37° C., 5% CO2, 90% Rh for 1-1.5 h or until reasonable signal appeared. The colorimetric reaction was stopped with the addition of 60 μL/well 1M sodium carbonate. Plates were counted at 405 nm on a SpectraMax Microplate Reader (Molecular Devices). Data was analyzed in Microsoft Excel and IC/EC50 curves were fit using a standardized macro.

In experiment [2] the target is T2, human adenosine A1 receptor (Homo sapiens, UniProt P30542).
T2 construct: expressed in transfected cells; host or cells: CHO-K1
T2 sequence (P30542 1-326): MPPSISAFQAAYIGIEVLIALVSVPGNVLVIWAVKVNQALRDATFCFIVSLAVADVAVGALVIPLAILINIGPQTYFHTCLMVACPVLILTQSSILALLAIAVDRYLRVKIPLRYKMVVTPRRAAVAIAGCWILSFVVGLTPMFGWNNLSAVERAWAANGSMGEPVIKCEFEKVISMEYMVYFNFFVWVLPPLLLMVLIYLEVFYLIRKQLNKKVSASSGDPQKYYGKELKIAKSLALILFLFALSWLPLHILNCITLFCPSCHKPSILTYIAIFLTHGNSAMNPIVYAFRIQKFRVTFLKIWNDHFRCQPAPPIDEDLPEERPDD
In words: Adenosine A1 receptor functional assay (A1GAL2), cAMP inducible beta-galactosidase reporter, r-PIA/Forskolin challenge. The format is cell-based. As to conditions: CHO-K1 cells overexpressing human A1 receptor; antagonist curve against 4 nM r-PIA/1 uM Forskolin. As to the method:
Adenosine A1 Receptor Functional Assay (A1GAL2)
To initiate the functional assay, cryopreserved CHO—K^1 cells overexpressing the human adenosine A1 receptor and containing a cAMP inducible beta-galactosidase reporter gene were thawed, centrifuged, DMSO containing media removed, and then seeded with fresh culture media into clear 384-well tissue culture treated plates (BD #353961) at a concentration of 10K cells/well. Prior to assay, these plates were cultured for two days at 37° C., 5% CO2, 90% Rh. On the day of the functional assay, culture media was removed and replaced with 45 μL assay medium (Hams/F-12 Modified (Mediatech # 10-080CV) supplemented w/0.1% BSA). Test compounds were diluted and 11 point curves created at a 1000× concentration in 100% DMSO. Immediately after addition of assay media to the cell plates, […] of the appropriate test compound antagonist or agonist control curves were added to cell plates using a Cartesian Hummingbird. Compound curves were allowed to incubate at room temperature on cell plates for approximately 15 minutes before addition of a 4 nM r-PIA (Sigma P4532)/1 uM Forskolin (Sigma F3917) agonist challenge (5 μL volume). A control curve of r-PIA in 1 uM Forskolin, a DMSO/Media control, and a single dose of Forskolin were also included on each plate. After additions, cell plates were allowed to incubate at 37° C., 5% CO2, 90% Rh for 5.5-6 hours. After incubation, media was removed, and cell plates were washed 1×50 μL with DPBS w/o Ca & Mg (Mediatech 21-031-CV). Into dry wells, 20 μL of 1× Reporter Lysis Buffer (Promega E3971 (diluted in dH2O from 5× stock)) was added to each well and plates frozen at −20° C. overnight. For β-galactosidase enzyme colorimetric assay, plates were thawed out at room temperature and 20 μL 2× assay buffer (Promega) was added to each well. Color was allowed to develop at 37° C., 5% CO2, 90% Rh for 1-1.5 h or until reasonable signal appeared. […] Plates were counted at 405 nm on a SpectraMax Microplate Reader (Molecular Devices). Data was analyzed in Microsoft Excel and IC/EC50 curves were fit using a standardized macro.

pIC50: −log10 of the molar value.

T1 sequence (P29274 whole entry): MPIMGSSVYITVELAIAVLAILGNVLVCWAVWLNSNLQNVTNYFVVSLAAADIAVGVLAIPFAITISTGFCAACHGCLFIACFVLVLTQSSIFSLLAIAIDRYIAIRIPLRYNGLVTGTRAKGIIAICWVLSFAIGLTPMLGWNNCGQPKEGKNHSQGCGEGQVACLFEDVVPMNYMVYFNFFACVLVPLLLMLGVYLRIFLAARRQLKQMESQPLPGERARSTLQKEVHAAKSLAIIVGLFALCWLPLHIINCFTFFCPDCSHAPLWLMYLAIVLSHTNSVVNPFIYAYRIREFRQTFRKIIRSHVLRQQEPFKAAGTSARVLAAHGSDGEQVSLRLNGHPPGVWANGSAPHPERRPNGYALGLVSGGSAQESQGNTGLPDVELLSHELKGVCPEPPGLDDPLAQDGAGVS

In the case of `Nc1nc(-c2ccc(F)cc2)c2c(n1)-c1c(Cc3cn[nH]c3)cccc1C2=O` [Example 2, 2-Amino-4-(4-fluoro-phenyl)-9-(1H-pyrazol-4-ylmethyl)-indeno[1,2-d]pyrimidin-5-one], in experiment [1], the negative logarithm of the IC50 (pIC50) was 9.12 and the A1/A2A is given as 195.975. The compound further showed a pIC50 in experiment [2] of 6.83.
With `Cc1nc(C)c(Cc2cccc3c2-c2nc(N)nc(-c4ccc(F)cc4)c2C3=O)s1` [Example 1, 2-Amino-9-(2,4-dimethyl-thiazol-5-ylmethyl)-4-(4-fluoro-phenyl)-indeno[1,2-d]pyrimidin-5-one], in experiment [1], the negative logarithm of the IC50 (pIC50) is 7.93 and the A1/A2A is recorded as 276.249. The pIC50 in experiment [2] was 5.48.
With `Cc1noc(C)c1Cc1cccc2c1-c1nc(N)nc(-c3ccc(F)cc3)c1C2=O` [Example 3, 2-Amino-9-(3,5-dimethyl-isoxazol-4-ylmethyl)-4-(4-fluoro-phenyl)-indeno[1,2-d]pyrimidin-5-one], the pIC50 in experiment [1] was 7.38; in experiment [2] it was 5.57. Moreover, the A1/A2A in experiment [1] came to 64.5654.
